How the values were obtained:
[1] = Particle size and polydispersity index of nanoparticle compositions (Zetasizer Nano ZS); format: physicochemical
Procedure, shortened: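 Formulations of ionizable lipid, DSPC, cholesterol and PEG-DMG (50:10:38.5:1.5 mol %) carrying Luc or hEPO mRNA with all uridines as N1-methyl pseudouridine. Dynamic light scattering in 1×PBS gave particle size and polydispersity; zeta potential read in 15 mM PBS.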

modified luciferase = assay: Luciferase expression in liver, lung, spleen and femur 6 hours after intravenous administration to mice; format: in vivo; details: 6 hours after intravenous 0.5 mpk, mice
Procedure, shortened: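 Mice (n=3) got a single 0.5 mpk IV dose of each nanoparticle composition, with MC3 and PBS controls alongside. Organ luminescence flux was read 6 h post-dose.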

IL-6, IP-10 = assay: Cytokine induction (IL-6, IP-10) in mice 6 hours after intravenous administration; format: in vivo; set-up: unit not given here; details: intravenous 0.5 mpk
Excerpt: The introduction of foreign material into a mammalian body induces an innate immune response that promotes cytokine production. Such immune responses to, for example, nanoparticle compositions including therapeutic and/or prophylactics, are undesirable. The induction of certain cytokines is thus measured to evaluate the […] of nanoparticle compositions. The concentrations of various cytokines in mice upon intravenous administration of nanoparticle compositions presented in Table 1A at a dosage of 0.5 mpk was measured at 6 hours. The standard MC3 formulation and a PBS control were also tested. As is evident in Table 7, IL-6 induction was highest for compositions including Compounds 1, 3, 9, 19, and 26, while IP-10 induction was highest for compositions including Compounds 3, 4, 7, 20, and 26. IL-6 induction was lowest for compositions including Compounds 4, 11, 12, and 28. IP-10 induction was lowest for compositions including Compounds 10, 11, 12, 13, 15, 17, and 18.

[2] = Encapsulation efficiency of RNA in nanoparticle compositions (RIBOGREEN assay); format: physicochemical
Procedure, shortened: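 Lipid nanoparticles (ionisable lipid:DSPC:cholesterol:PEG-DMG 50:10:38.5:1.5 mol %) carrying N1-methylpseudouridine luciferase or hEPO mRNA diluted to about 5 μg/mL in TE, pH 7.5, with or without 2% Triton X-100, 15 min at 37° C. RiboGreen fluorescence (ex ~480, em ~520 nm) blank-subtracted; free RNA = intact/disrupted signal.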

luciferase (Luc) mRNA = assay: Luciferase expression (whole body bioluminescence) after intravenous administration to mice; format: in vivo
Description: In order to monitor how effectively various nanoparticle compositions deliver therapeutic and/or prophylactics to targeted cells, different nanparticle compositions including a particular therapeutic and/or prophylactic (for example, a modified or naturally occurring RNA such as an mRNA) are prepared and administered to rodent populations. Mice are intravenously, intramuscularly, intraarterially, or intratumorally administered a single dose including a nanoparticle composition with a formulation such as those provided in Example 3. In some instances, mice may be made to inhale doses. Dose sizes may range from 0.001 mg/kg to 10 mg/kg, where 10 mg/kg describes a dose including 10 mg of a therapeutic and/or, prophylactic in a nanoparticle composition for each 1 kg of body mass of the mouse. A control composition including PBS may also be employed.
Upon administration of nanoparticle compositions to mice, dose delivery profiles, dose responses, and toxicity of particular formulations and doses thereof can be measured by enzyme-linked immunosorbent assays (ELISA), bioluminescent imaging, or other methods. For nanoparticle compositions including mRNA, time courses of protein expression can also be evaluated. Samples collected from the rodents for evaluation may include blood, sera, and tissue (for example, muscle tissue from the site of an intramuscular injection and internal tissue); sample collection may involve sacrifice of the animals.
The efficacy of the nanoparticle compositions presented in Table 1A was evaluated with a bioluminescence study. Formulations were administered intravenously to mice (n=6) at a dosage of 0.5 mg/kg (mpk) and bioluminescence measured at 3, 6, and 24 hour time points. The standard MC3 formulation and, in some instances, a control (e.g., a PBS control) were evaluated for comparison. […] In general, flux decreased as time progressed to less than 10% of the initial flux.
The total flux (measured by area under the curve, AUC) induced by administration of a formulation including a given lipid relative to that induced by administration of a formulation including MC3 was also measured for several lipids.

[3] = Table 1A, lipid:DSPC:cholesterol:PEG-DMG 50:10:38.5:1.5 mol %
[4] = Table 1B, formulated with hEPO mRNA
[5] = intravenous administration (Table 3D)

CCCCCCCCCCCCCCCCCCN(CCO)CCCCCCCC(=O)OC(CCCCCCCC)CCCCCCCC [Compound 1, Heptadecan-9-yl 8-((2-hydroxyethyl)(octadecyl)amino)octanoate]
Size [1, 3]: 72.7 nm | Total Flux, Femur (modified luciferase): 7.52E+05 | Total Flux, Liver (modified luciferase): 4.02E+08 | Total Flux, Lung (modified luciferase): 1.72E+06 | Total Flux, Spleen (modified luciferase): 4.27E+06 | Cytokine induction, IL-6 (IL-6, IP-10): 267.24 | Cytokine induction, IP-10 (IL-6, IP-10): 687.14

CCCCCCCCC(CCCCCCCC)OC(=O)CCCCCCCN(CCO)CCCCCC [Compound 5, Heptadecan-9-yl 8-(hexyl(2-hydroxyethyl)amino)octanoate]
EE [2, 3]: 77.07% | Total Flux, Femur (modified luciferase): 1.22E+06 | Total Flux, Liver (modified luciferase): 5.84E+07 | Total Flux, Lung (modified luciferase): 1.89E+06 | Total Flux, Spleen (modified luciferase): 1.55E+08 | Cytokine induction, IL-6 (IL-6, IP-10): 94.07 | Cytokine induction, IP-10 (IL-6, IP-10): 487.16

CCCCCCCCC(CCCCCCCC)OC(=O)CCCCCCCN(CCO)CCCCCCCC(=O)OCC1CC1CCCCCC (stereo not drawn) [Compound 28, Heptadecan-9-yl 8-((8-((2-hexylcyclopropyl)methoxy)-8-oxooctyl)(2-hydroxyethyl)amino)octanoate]
Size [1, 3]: 99.4 nm | Total Flux, Liver (modified luciferase): 1.22E+10 | Total Flux, Lung (modified luciferase): 2.17E+08 | Total Flux, Spleen (modified luciferase): 1.80E+08 | Cytokine induction, IL-6 (IL-6, IP-10): 17.47 | Cytokine induction, IP-10 (IL-6, IP-10): 283.13

CCCCCCCCCOC(=O)CCCCCCCN(CCCCCCCC(=O)OC(CCCCCCCC)CCCCCCCC)CCCNC(C)=O [Compound 108, Heptadecan-9-yl 8-((3-acetamidopropyl)(8-(nonyloxy)-8-oxooctyl)amino)octanoate]
Size [1, 3]: 119 nm | Size [1, 4]: 89.6 nm | Size ([1]; Table 1E, compositions for subcutaneous administration): 96.1 nm | EE [2, 3]: 96% | EE [2, 4]: 95.38% | Novel lipid/MC3 expression ratio, i.v. (luciferase (Luc) mRNA; intravenous, luciferase, 6 hr. time point, relative to MC3 formulation): 0.40 | Total Flux, Liver (modified luciferase): 4.63E+08 | Total Flux, Lung (modified luciferase): 9.81E+06 | Total Flux, Spleen (modified luciferase): 7.82E+08

CCCCCCCCC(CCCCCC)C(=O)OCCCCCCCCCN(CCO)CCCCCCCCCOC(=O)C(CCCCCC)CCCCCCCC (stereo not drawn) [Compound 133, ((2-Hydroxyethyl)azanediyl)bis(nonane-9,1-diyl) bis(2-hexyldecanoate)]
Size [1, 3]: 66.0 nm | EE [2, 3]: 91.48% | AUC (luciferase (Luc) mRNA; i.v. administration (Table 3C)): 3.62E+11 h*p/s | Total Flux, Liver (modified luciferase): 2.94E+09 | Total Flux, Lung (modified luciferase): 3.18E+06 | Total Flux, Spleen (modified luciferase): 1.77E+07

CCCCCCCCCOC(=O)CCCCCCCN(CCO)CCCCCCCCCOC(=O)C(CCCCCC)CCCCCCCC (stereo not drawn) [Compound 134, 9-((2-Hydroxyethyl)(8-(nonyloxy)-8-oxooctyl)amino)nonyl 2-hexyldecanoate]
Size [1, 3]: 85.6 nm | EE [2, 3]: 94.62% | AUC (luciferase (Luc) mRNA; i.v. administration (Table 3C)): 3.43E+11 h*p/s | Total Flux, Liver (modified luciferase): 1.73E+09 | Total Flux, Lung (modified luciferase): 2.82E+06 | Total Flux, Spleen (modified luciferase): 1.85E+07

CCCCCCCCC(C)OC(=O)CCCCCCCN(CCO)CCCCCCCOC(=O)C(CCCCCCCC)CCCCCCCC (stereo not drawn) [Compound 135, 7-((8-(Decan-2-yloxy)-8-oxooctyl)(2-hydroxyethyl)amino)heptyl 2-octyldecanoate]
Size [1, 3]: 89.5 nm | EE [2, 3]: 90.20% | AUC (luciferase (Luc) mRNA; i.v. administration (Table 3C)): 1.25E+12 h*p/s | Total Flux, Liver (modified luciferase): 1.65E+10 | Total Flux, Lung (modified luciferase): 2.71E+07 | Total Flux, Spleen (modified luciferase): 1.39E+08

CCCCCC/C=C\COC(=O)CCCCCCCN(CCO)CCCCCCCC(=O)OC/C=C\CCCCCC [Compound 139, Di((Z)-non-2-en-1-yl) 8,8′-((2-hydroxyethyl)azanediyl)dioctanoate]
EE [2, 3]: 78.2% | Total Flux, Femur (modified luciferase): 5.12E+04 | Total Flux, Liver (modified luciferase): 8.27E+05 | Total Flux, Lung (modified luciferase): 5.26E+04 | Total Flux, Spleen (modified luciferase): 2.10E+06 | Cytokine induction, IL-6 (IL-6, IP-10): 23.57 | Cytokine induction, IP-10 (IL-6, IP-10): 153.36

CCCCCCCCC(CCCCCCCC)OC(=O)CCCCCCCN(CCO)CCCCCC(=O)N(C)CCCCCCCC [Compound 146, Heptadecan-9-yl 8-((2-hydroxyethyl)(6-(methyl(octyl)amino)-6-oxohexyl)amino)octanoate]
Size [1, 3]: 97.0 nm | EE [2, 3]: 91.94% | AUC (luciferase (Luc) mRNA; i.v. administration (Table 3C)): 1.04E+09 h*p/s | Total Flux, Liver (modified luciferase): 7.24E+06 | Total Flux, Lung (modified luciferase): 3.88E+06 | Total Flux, Spleen (modified luciferase): 5.11E+07

CCCCCCCCCOC(=O)CCCCCCCN(CCO)CCCCCCCCCC(=O)OC(CCCCCC)CCCCCC [Compound 147, Tridecan-7-yl 10-((2-hydroxyethyl)(8-(nonyloxy)-8-oxooctyl)amino)decanoate]
Size [1, 3]: 99.5 nm | Size [1, 4]: 111.9 nm | EE [2, 3]: 88.31% | EE [2, 4]: 91.0% | AUC (luciferase (Luc) mRNA; i.v. administration (Table 3C)): 5.63E+11 h*p/s | Total Flux, Liver (modified luciferase): 5.24E+09 | Total Flux, Lung (modified luciferase): 6.73E+06 | Total Flux, Spleen (modified luciferase): 8.57E+07

CCCCCCCCC(CCCCCCCC)OC(=O)CCCCCCCN(C)CCCCCCCCCCCC(=O)OCCCCC [Compound 150, Pentyl 12-((8-(heptadecan-9-yloxy)-8-oxooctyl)(methyl)amino)dodecanoate]
Size [1, 3]: 63.1 nm | EE [2, 3]: 96.72% | AUC (luciferase (Luc) mRNA; [5]): 2.704E+011 p/s*h | Total Flux, Liver (modified luciferase): 1.54E+09 | Total Flux, Lung (modified luciferase): 2.20E+06 | Total Flux, Spleen (modified luciferase): 3.43E+07

CCCCCCCCCC(=O)OCCCCCCCN(CCO)CCCCCCCOC(=O)C(CCCCCCCC)CCCCCCCC [Compound 151, 7-((7-(Decanoyloxy)heptyl)(2-hydroxyethyl)amino)heptyl 2-octyldecanoate]
Size [1, 3]: 105.7 nm | Size ([1]; Table 1D, compositions for subcutaneous administration, # formulated with hEPO mRNA): 77.6 nm | EE [2, 3]: 87.86% | AUC (luciferase (Luc) mRNA; [5]): 7.010E+011 p/s*h | Total Flux, Liver (modified luciferase): 4.72E+09 | Total Flux, Lung (modified luciferase): 9.20E+06 | Total Flux, Spleen (modified luciferase): 9.27E+07

CCCCCCCCCOC(=O)CCCCCCCN(CCCCCCCC(=O)OC(CCCCCCCC)CCCCCCCC)CCOCCO [Compound 154, Heptadecan-9-yl 8-((2-(2-hydroxyethoxy)ethyl)(8-(nonyloxy)-8-oxooctyl)amino)octanoate]
Size [1, 3]: 92.9 nm | EE [2, 3]: 94.28% | AUC (luciferase (Luc) mRNA; [5]): 5.560E+010 p/s*h | Total Flux, Liver (modified luciferase): 3.62E+08 | Total Flux, Lung (modified luciferase): 2.89E+06 | Total Flux, Spleen (modified luciferase): 1.30E+07

— US10857105B2, “Compounds and compositions for intracellular delivery of therapeutic agents” (ModernaTX, Inc., priority 2017, dated 2020)
